Assay results: patent US20240390434A1, “PROBIOTIC ENHANCERS AND USES THEREOF” (Blis Technologies Limited, priority 2021, published 2024)

Assays:
Format in all cases: cell-based
S. pyogenes M76 = assay: Dose response deferred antagonism assay, producer K12; conditions: 1.5% raffinose (w/v), peak
Experimental: (§1) 1-2 producer strain colonies were transferred from a stock plate into 900 μL of suspension solution using a fresh cotton swab. Following this, suspensions were vortexed, and a sample was inoculated onto solid culture media using a fresh cotton swab. The inoculation was a streak that runs diametrically across the agar plate in a 1.5 cm wide strip. The plate was then incubated. Following incubation all visible colonies were removed by swabbing them from the agar surface. The plates were then treated with chloroform by dispensing 2 ml of chloroform onto 4 cm×4 cm piece of cloth and sealing the inverted agar plate on top for 30 minutes. The plates were then air dried for 30 minutes following chloroforming. 1-2 indicator strain colonies were then transferred from a stock plate into complementary suspension solution. The suspensions were then vortexed, and a sample was inoculated onto the same agar surface. These samples were streaked in a perpendicular direction to the initial producer streak.
(§2) Each indicator streak was prepared with fresh a suspension containing cells from a corresponding stock plate containing the indicator strain of interest. Indicator strains suspension samples were transferred using a fresh cotton swab. Results were measured by qualitatively reviewing the subsequent (if any) sizes of the zones of inhibition (ZOI) of indicator strain colony growth. A positive result is when there is a distinctive reduction or complete inhibition of indicator colony growth on the culture medium.
(§3) CABCa agar plates containing various concentrations of saccharide were prepared according to the methods described in Method 1. Producer strains were transferred from stock agar plates into 900 μL THB using a fresh cotton swab. A plastic spread plater was cut to approximately 1.2 cm width and then dipped into ethanol and left to air dry to ensure sterility. A 100 μL sample of the producer strain suspension was then dispensed onto the agar surface in a straight line running diametrically across the agar surface in (approximately) 20 μL spots. The spots were spaced approximately 1.5 cm apart from each other. The plastic spreader was then used to evenly distribute the spots across the agar surface in a 1.5 cm wide strip. This step was taken to ensure an even producer streak was inoculated onto the agar surface and provided an approximate measure of the initial inoculum concentration. Separate plastic spreaders were used for samples containing different producer strains. The samples were left to soak into the agar surface until there was no visible liquid remaining on the agar surface (approximately 20 minutes). Following producer streak preparations, the deferred antagonism assay protocol was followed as per Method 2. Results were recorded by measuring the size of the zone of inhibition (ZOI) in mm.
(§4) The results presented in FIG. 1 and FIG. 2 illustrate the change in ear, nose, and throat (ENT) microorganism indicator strain zone of inhibition sizes. When K12 was cultured in the presence of various concentrations of galactose the ZOI sizes for several of the ENTR indicator strains increased markedly from the control condition (FIG. 1). M. catarrhalis TW1 and TW2 display similar changes in the ZOI sizes across the various concentrations of galactose. The change in TW1 ZOI size peaks at 1.5% galactose(w/v) (12 mm) then decreases at 2.0% galactose (w/v), whereas the change of TW2 ZOI size peaks at 2.0% galactose (w/v) (11 mm). The change in L. lactis T-21 ZOI sizes trend upwards relative to the concentration of galactose present in the culture medium.

L. lactis T-21 = assay: as above
Experimental: as §1, §2, §3, §4

M. catarrhalis TW2 = assay: as above; conditions: 2.0% (w/v) raffinose, peak
Experimental: as §1, §2, §3, §4

S. mutans OMZ175 = assay: Deferred antagonism assay, producer S. salivarius K12; conditions: for Zone of inhibition S. mutans OMZ175 / Inhibitory activity of S. salivarius K12 in presence of saccharides, S. mutans OMZ175: K12
Experimental: as §1, §2, §3
(§5) A dose response assay was carried out according to method 3 above, except a 1.2 cm streak was used. For the individual saccharide testing the pH of the producer streak was adjusted after the growth of producer to change the acidic conditions.
(§6) A deferred antagonism assay was conducted using K12 or M18 raw ingredient suspended in Todd Hewitt broth (THB). This was spread as a 1.2 cm streak containing approximately 1-2×10^6 cfu down the middle of a CABCa control or CABCa galactose supplemented test plate. After 18 hrs growth at 37° C. with 5% CO2, bacterial growth was removed, and the pH of the agar in the initial streak was measured and adjusted to a pH of 6.5-7.5 using 0.5M sodium carbonate pH11 before sterilizing the agar surface using chloroform vapor. Bacterial test strains were suspended in i-THB before being swabbed across the plates perpendicular to the initial streak. Plates were incubated for a further 18 hrs incubation at 37° C. with 5% CO2 before measuring (mm) any zones of inhibition for each test strain, […]

[1] = test system: S. saprophyticus ATCC 15305; assay: as above; conditions: for Zone of inhibition S. saprophyticus ATCC 15305 / Inhibitory activity of S. salivarius K12 in presence of saccharides, S. saprophyticus ATCC 15305: K12
Experimental: as §1, §2, §3, §5, §6

S. pneumoniae D39 = assay: as above; conditions: for Zone of inhibition S. pneumoniae D39: K12
Experimental: as §1, §2, §3, §5, §6

S. constellatus T29 = assay: as above; conditions: for Zone of inhibition S. constellatus T29: K12
Experimental: as §1, §2, §3, §5, §6

[2] = 2.5, 5 and 10% w/v raffinose added

SMILES: OC[C@H]1O[C@H](OC[C@H]2O[C@H](O[C@]3(CO)O[C@H](CO)[C@@H](O)[C@@H]3O)[C@H](O)[C@@H](O)[C@@H]2O)[C@H](O)[C@@H](O)[C@H]1O [Raffinose, D-(+) Raffinose pentahydrate]
- change in ZOI size for S. pyogenes M76 (S. pyogenes M76): 13 mm
- change in L. lactis ZOI size (L. lactis T-21; 0.1% raffinose (w/v)): 15 mm
- change in L. lactis ZOI size (L. lactis T-21; 1.0% raffinose (w/v)): 16 mm
- change in ZOI size M. catarrhalis TW2 (M. catarrhalis TW2): 13 mm
- sensitivity of S. mutans OMZ175 to K12 (S. mutans OMZ175; [2]): sensitive
- Zone of inhibition S. mutans OMZ175 (S. mutans OMZ175; Raffinose 1.7% wt): 11 mm
- Zone of inhibition S. mutans OMZ175 (S. mutans OMZ175; Raffinose 1.7% wt, pH adjusted): 7 mm
- Zone of inhibition S. mutans OMZ175 (S. mutans OMZ175; Raffinose 2.5% wt): 16 mm
- Zone of inhibition S. mutans OMZ175 (S. mutans OMZ175; Raffinose 2.5% wt, pH adjusted): 13 mm
- Zone of inhibition S. mutans OMZ175 (S. mutans OMZ175; Raffinose 3.3% wt): 16 mm
- Zone of inhibition S. mutans OMZ175 (S. mutans OMZ175; Raffinose 3.3% wt, pH adjusted): 14 mm
- Zone of inhibition S. mutans OMZ175 (S. mutans OMZ175; Raffinose 5% wt): 16 mm
- Zone of inhibition S. mutans OMZ175 (S. mutans OMZ175; Raffinose 5% wt, pH adjusted): 15 mm
- Zone of inhibition S. mutans OMZ175 (S. mutans OMZ175; Raffinose 10% wt): 15 mm
- Zone of inhibition S. mutans OMZ175 (S. mutans OMZ175; Raffinose 10% wt, pH adjusted): 10 mm
- Inhibitory activity of S. salivarius K12 in presence of saccharides, S. mutans OMZ175 (S. mutans OMZ175; saccharide 3.3% w/v): ✓
- Inhibitory activity of S. salivarius K12 in presence of saccharides, S. mutans OMZ175 (S. mutans OMZ175; saccharide range 2.5%-10% w/v): ✓
- sensitivity of S. saprophyticus ATCC 15305 to K12 [1, 2]: sensitive
- Zone of inhibition S. saprophyticus ATCC 15305 ([1]; Raffinose 1.7% wt): 7 mm
- Zone of inhibition S. saprophyticus ATCC 15305 ([1]; Raffinose 1.7% wt, pH adjusted): 0 mm
- Zone of inhibition S. saprophyticus ATCC 15305 ([1]; Raffinose 2.5% wt): 12 mm
- Zone of inhibition S. saprophyticus ATCC 15305 ([1]; Raffinose 2.5% wt, pH adjusted): 8 mm
- Zone of inhibition S. saprophyticus ATCC 15305 ([1]; Raffinose 3.3% wt): 12 mm
- Zone of inhibition S. saprophyticus ATCC 15305 ([1]; Raffinose 3.3% wt, pH adjusted): 11 mm
- Zone of inhibition S. saprophyticus ATCC 15305 ([1]; Raffinose 5% wt): 13 mm
- Zone of inhibition S. saprophyticus ATCC 15305 ([1]; Raffinose 5% wt, pH adjusted): 12 mm
- Zone of inhibition S. saprophyticus ATCC 15305 ([1]; Raffinose 10% wt): 12 mm
- Zone of inhibition S. saprophyticus ATCC 15305 ([1]; Raffinose 10% wt, pH adjusted): 11 mm
- Inhibitory activity of S. salivarius K12 in presence of saccharides, S. saprophyticus ATCC 15305 ([1]; saccharide 3.3% w/v): ✓
- Inhibitory activity of S. salivarius K12 in presence of saccharides, S. saprophyticus ATCC 15305 ([1]; saccharide range 2.5%-10% w/v): ✓
- inhibition by K12 of S. pneumoniae (S. pneumoniae D39; 0.5 to 10% w/v raffinose): increase in inhibition
- Zone of inhibition S. pneumoniae D39 (S. pneumoniae D39; Raffinose 1.7% wt): 5 mm
- Zone of inhibition S. pneumoniae D39 (S. pneumoniae D39; Raffinose 1.7% wt, pH adjusted): 10 mm
- Zone of inhibition S. pneumoniae D39 (S. pneumoniae D39; Raffinose 2.5% wt): 8 mm
- Zone of inhibition S. pneumoniae D39 (S. pneumoniae D39; Raffinose 2.5% wt, pH adjusted): 9 mm
- Zone of inhibition S. pneumoniae D39 (S. pneumoniae D39; Raffinose 3.3% wt): 10 mm
- Zone of inhibition S. pneumoniae D39 (S. pneumoniae D39; Raffinose 3.3% wt, pH adjusted): 7 mm
- Zone of inhibition S. pneumoniae D39 (S. pneumoniae D39; Raffinose 5% wt): 8 mm
- Zone of inhibition S. pneumoniae D39 (S. pneumoniae D39; Raffinose 5% wt, pH adjusted): 13 mm
- Zone of inhibition S. pneumoniae D39 (S. pneumoniae D39; Raffinose 10% wt): 10 mm
- Zone of inhibition S. pneumoniae D39 (S. pneumoniae D39; Raffinose 10% wt, pH adjusted): 10 mm
- inhibition by K12 of S. constellatus T-29 (S. constellatus T29; 0.5 to 10% w/v raffinose): increase in inhibition
- Zone of inhibition S. constellatus T29 (S. constellatus T29; Raffinose 1.7% wt): 8 mm
- Zone of inhibition S. constellatus T29 (S. constellatus T29; Raffinose 1.7% wt, pH adjusted): 4 mm
- Zone of inhibition S. constellatus T29 (S. constellatus T29; Raffinose 2.5% wt): 22 mm
- Zone of inhibition S. constellatus T29 (S. constellatus T29; Raffinose 2.5% wt, pH adjusted): 18 mm
- Zone of inhibition S. constellatus T29 (S. constellatus T29; Raffinose 3.3% wt, pH adjusted): 16 mm
- Zone of inhibition S. constellatus T29 (S. constellatus T29; Raffinose 5% wt, pH adjusted): 12 mm
- Zone of inhibition S. constellatus T29 (S. constellatus T29; Raffinose 10% wt): 2 mm
- Zone of inhibition S. constellatus T29 (S. constellatus T29; Raffinose 10% wt, pH adjusted): 11 mm
